This is an account of results in PubChem BioAssay (NCI).

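1) Cells in 96-well plates. 2) Compound, 48 h, 5 concentrations. 3) Linear interpolation between surrounding doses. 4) Unreached endpoint = highest concentration. GI50 marks 50% less growth. The concentration for full growth arrest is given as TGI.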

Assay in all cases: NCI-60 cell line screen, 48 h
The subject of assay [1] is EKVX NSCLC.
The test system of assay [2] is K-562 leukemia.
The test system of assay [3] is KM12 colon.
For assay [4], the system named is MALME-3M melanoma.
Assay [5] relates to NCI-H23 lung.
In assay [6] the test system is OVCAR-4 ovarian.
Assay [7] has as its system SF-539 CNS.
Assay [8] concerns SN12C renal.
For assay [9], the system named is SNB-75 CNS.
Assay [10] relates to T-47D breast.

For `CCOc1ccc2c(c1)[n+]([O-])c(-c1ccc(Cl)cc1)c(N)[n+]2[O-]`, the TGI in [1], in [2], in assay [3], in assay [4], in assay [5] and in [6] was over 100 µM each time. The TGI in assay [7], in assay [8] and in assay [9] was over 100 µM each time.

As to `COc1ccc(Br)c(N/N=C2\CCCNC2=O)c1`, the TGI in assay [1] was 78.6 µM; in assay [2], over 100 µM; in [3] it was over 100 µM; in assay [4] it was over 100 µM; in [5] it was over 100 µM; in assay [6], over 100 µM. Also, the TGI in [7], in [8] and in [9] was over 100 µM each time.

For the molecule `O=[N+]([O-])c1cc(C(F)(F)F)cc([N+](=O)[O-])c1CCl`, the TGI was determined as 13.4 µM in assay [1]; 1.11 µM in assay [2]; 4.92 µM in [3]; 13.1 µM in [4]; 5.7 µM in assay [5]; 3.69 µM in [6]. In addition, the TGI in assay [7] stood at 9.23 µM; in assay [8], 3.08 µM; in [9] it was 8.77 µM.

On to `CN1C(=Nc2ccccc2)SC1=Nc1ccccc1`, for which the TGI was over 100 µM in [1]; over 100 µM in [2]; over 100 µM in assay [3]; 94.3 µM in assay [4]; over 100 µM in assay [5]; over 100 µM in assay [6]. Further, the figures for the TGI in [7] and in assay [9] were over 100 µM and 40.3 µM, respectively.

Regarding `Cc1cc(=O)n(-c2ccccc2C)c(C)n1`, the TGI in assay [1], in [2], in assay [3], in assay [4], in assay [5] and in assay [6] was over 100 µM each time. For the same molecule, the TGI in [7], in [8] and in assay [9] was over 100 µM each time.

With `COc1cc2c(cc1C)NC(=O)/C2=C/c1ccccn1`, the GI50 is 0.0532 µM in assay [1]; 2.71 µM in assay [2]; 2.76 µM in assay [5]; 8.02 µM in assay [6]; 0.024 µM in [7]; 4.01 µM in [8]. Besides, the GI50 was 8.52 µM in assay [9] and 19.3 µM in [10]. For the same molecule, the TGI in assay [1] was 6.88 µM; in assay [2], over 100 µM; in [5] it was 9.1 µM; in assay [6], over 100 µM; in [7] it was 2.47 µM; in [8], 18.4 µM. The TGI in assay [9] and in [10] was over 100 µM in each case.

Turning to `CCCCOC(=O)C1C2CCC(O2)C1C(=O)OCCCC` (stereo unspecified), the TGI in [1], in assay [2], in [3], in assay [4], in assay [5] and in assay [6] was over 100 µM each time. Moreover, the TGI in assay [7], in assay [8] and in assay [9] was over 100 µM each time.

Regarding `CC(=O)CC(=O)OC1CC(C)CCC1C(C)C` (stereo unspecified), the TGI in [1], in assay [2], in assay [3], in assay [4], in [5] and in assay [6] was over 100 µM throughout. The TGI in assay [7], in [8] and in assay [9] was over 100 µM in each case.

For `CCC[CH2][Sn]1([CH2]CCC)[O]C(=O)c2cccnc2[O]1`, the GI50 was 2.54 µM in assay [1]; 1.85 µM in [2]; 4.6 µM in assay [3]; 1.56 µM in assay [4]; 1.33 µM in assay [5]; 1.65 µM in [6]. For the same molecule, the values for the GI50 in [7], in assay [8] and in [9] were 1.87 µM, 2.58 µM and 2.09 µM, respectively. Also, the TGI was 8.04 µM in assay [1]; 6.01 µM in assay [2]; 17.6 µM in assay [3]; 4.11 µM in assay [4]; 2.99 µM in [5]; 8.57 µM in [6]. Besides, the TGI was found to be 4 µM in [7], 8.79 µM in assay [8] and 6.78 µM in [9].

Take `COC(=O)/C(C)=C(/CCC1(C)OCCO1)O[Si](C)(C)C`: the TGI in assay [1], in [2], in assay [3], in assay [4], in [5] and in assay [6] was over 100 µM each time. For the same molecule, the TGI is over 100 µM in [7], over 100 µM in assay [8] and 71.7 µM in [9].

In the case of `CN(C)CC/C(=N\Nc1ccc([N+](=O)[O-])cc1)c1ccccc1`, the TGI in assay [1] came to 29.9 µM; in [2], 15.9 µM; in assay [3] it was 22.3 µM; in assay [4], 39.9 µM; in [5] it was 27.1 µM; in assay [6], 37.2 µM. In addition, the TGI worked out at 20.3 µM in assay [7], 23.8 µM in assay [8] and 17.6 µM in assay [9].

In the case of `OC(c1ccccc1)(c1ccccc1)c1ccncc1`, the TGI in assay [1], in assay [2], in assay [3], in assay [4], in assay [5] and in assay [6] was over 100 µM in each case. The TGI in assay [7], in [8] and in assay [9] was over 100 µM throughout.

For the molecule `c1ccc2c(c1)cc(C1NCCc3[nH]cnc31)c1ccccc12` (stereo unspecified), the TGI in assay [1] is over 100 µM; in assay [2] it was 41.1 µM; in assay [3], over 100 µM; in [4], over 100 µM; in assay [5], over 100 µM; in assay [6] it was over 86.8 µM. The TGI in [7] is over 59.9 µM; in [8] it was over 100 µM; in assay [9], over 100 µM.

On to `CC(C)C1CC[C@@H](C)C[C@@]1(O)CC(N)=O` (stereo partly specified), for which the TGI in assay [1], in assay [2], in assay [3], in [4], in assay [5] and in [6] was over 100 µM throughout. Also, the TGI in [7], in assay [8] and in assay [9] was over 100 µM throughout.

Turning to `Oc1ccccc1/C=C/c1csnn1`, the TGI in assay [1], in [2], in assay [3], in assay [4], in [5] and in assay [6] was over 100 µM each time. Further, the TGI in assay [7], in [8] and in [9] was over 100 µM throughout.

In the case of `CCOC(=O)NC(=O)c1cn(CCOC(=O)CCCCCCCCC(=O)OCCn2cc(C(=O)NC(=O)OCC)c(=O)[nH]c2=O)c(=O)[nH]c1=O`, the TGI in assay [1] is over 100 µM; in [2], over 100 µM; in [3], over 100 µM; in assay [4], over 100 µM; in assay [5], 56.7 µM; in [6] it was over 100 µM. Moreover, the TGI in assay [7], in [8] and in assay [9] was over 100 µM throughout.

For `COc1cnc2c(c1)C(=O)c1c-2n(CCCn2ccnc2)c(=O)c2cc(F)ccc12`, the GI50 in assay [1] was 0.167 µM; in assay [3], 0.0589 µM; in [4], 0.193 µM; in [5] it was 0.0171 µM; in [6], 0.118 µM; in assay [7], 0.0245 µM. In addition, the GI50 in assay [8] was under 0.01 µM; in assay [9], 0.187 µM. Moreover, the TGI in [1] was over 100 µM; in [3], 1.57 µM; in assay [4], 0.619 µM; in assay [5] it was 0.565 µM; in assay [6], 1.63 µM; in assay [7], 0.195 µM. Also, the figures for the TGI in [8] and in [9] were over 100 µM and 21.8 µM, respectively.

`COc1cc(/C=C2/C(=O)N(C(=O)OCC(C)C)C(Cc3cc(OC)c(OC)c(C)c3OC)C(=O)N2Cc2ccccc2)c(OC)c(C)c1OC` (stereo unspecified): the TGI in assay [1], in assay [2], in assay [3], in assay [4], in assay [5] and in [6] was over 100 µM each time. The TGI in [7], in assay [8] and in [9] was over 100 µM in each case.

Regarding `COc1cc([C@@H]2OC[C@@H]3C(c4cc(OC)c5c(c4)OCO5)OC[C@@H]32)cc(OC)c1OC` (stereo partly specified), the TGI in [1], in assay [2], in [3], in [5], in assay [6] and in assay [7] was over 100 µM throughout. Besides, the TGI in assay [9] and in [10] was over 100 µM in each case.

On to `C=C(C)C(=O)O[C@H]1CC(=C)[C@@H]2C[C@H](O)[C@](O)(CCl)[C@@H]2[C@H]2OC(=O)C(=C)[C@@H]21`, for which the GI50 is 12.3 µM in assay [1]; 1.8 µM in assay [2]; 1.8 µM in assay [3]; 1.86 µM in [4]; 11.6 µM in assay [5]; 2.08 µM in assay [6]. For the same molecule, the GI50 was 1.98 µM in assay [7], 4.09 µM in assay [8] and 6.97 µM in [9]. Further, the TGI in [1] came out at 25.7 µM; in assay [2] it was 4.59 µM; in [3], 3.99 µM; in assay [4], 3.6 µM; in assay [5] it was 25.7 µM; in assay [6] it was 4.01 µM. Besides, the results for the TGI in [7], in assay [8] and in assay [9] were 4.35 µM, 17.1 µM and 20.7 µM, respectively.

`CP1(=O)CCCCC1`: the TGI in assay [1], in assay [2], in assay [3], in assay [4], in assay [5] and in assay [6] was over 100 µM each time. For the same molecule, the TGI in assay [7], in assay [8] and in assay [9] was over 100 µM throughout.

With `Cc1ccc(S(=O)(=O)OC2CSS(=O)CC2OS(=O)(=O)c2ccc(C)cc2)cc1` (stereo unspecified), the TGI was 35.7 µM in assay [1]; 21.1 µM in assay [2]; 31.3 µM in [3]; 27.8 µM in [4]; 29 µM in [5]; 32.6 µM in assay [6]. The TGI in [7] worked out at 29.2 µM; in assay [8], 28.5 µM; in assay [9], 36.2 µM.

On to `COc1ccc(/C(COc2ccc3c(=O)cc(-c4ccccc4)oc3c2)=N\O)cc1`, for which the GI50 is 2.05 µM in assay [1]; 17.5 µM in [2]; 12.5 µM in assay [3]; 29.5 µM in assay [5]; 21.5 µM in assay [6]; 12.8 µM in [7]. For the same molecule, the GI50 in assay [8] is 9.36 µM; in assay [9], over 31.8 µM; in [10], 21.7 µM. In addition, the TGI was over 18 µM in assay [1]; over 50 µM in assay [2]; over 42.6 µM in assay [3]; over 50 µM in assay [5]; over 41.5 µM in [6]; 24.3 µM in assay [7]. In addition, the TGI in assay [8] is 36.4 µM; in assay [9], over 45.9 µM; in assay [10], over 45.8 µM.

In the case of `CCOc1ccccc1N1C(=O)C(=O)C(c2nc3ccccc3o2)C(=O)C1=O`, the TGI in assay [1] was over 100 µM; in assay [2], over 100 µM; in assay [4], over 100 µM; in [5] it was over 100 µM; in assay [6], 45.7 µM; in [7], over 100 µM. For the same molecule, the TGI in [8] and in [9] was over 100 µM in each case.

As for `Nc1ccnc(=O)[nH]1`, the TGI in assay [1], in assay [2], in [3], in assay [4], in [6] and in assay [7] was over 100 µM throughout. The TGI in [8] and in assay [9] was over 100 µM in each case.

On to `Cc1ccc2nc(NC(=O)C(=O)C(C#N)c3nc4ccccc4s3)sc2c1` (stereo unspecified), for which the TGI was over 100 µM in assay [1]; 76.6 µM in [2]; over 100 µM in assay [3]; over 100 µM in [4]; 83.9 µM in assay [5]; over 100 µM in assay [6]. Besides, the TGI in assay [7] is 40.7 µM; in assay [8], over 100 µM; in assay [9], over 100 µM.
